Assay results from patent US20060269579A1, “Compositions for treating osteoarthritis” (Musculoskeletal Research LLC, priority 2005, published 2006).

What was measured:
synovial lining cells = details: human
[1] = tested on: effect of IL-1 on synovial cells; details: cited from earlier work
connexin 43 = connexin 43 (Homo sapiens, UniProt P17302); details: Leybaert et al. 2003; cited from earlier work
Sequence of connexin 43 (P17302 2-382 limits assumed): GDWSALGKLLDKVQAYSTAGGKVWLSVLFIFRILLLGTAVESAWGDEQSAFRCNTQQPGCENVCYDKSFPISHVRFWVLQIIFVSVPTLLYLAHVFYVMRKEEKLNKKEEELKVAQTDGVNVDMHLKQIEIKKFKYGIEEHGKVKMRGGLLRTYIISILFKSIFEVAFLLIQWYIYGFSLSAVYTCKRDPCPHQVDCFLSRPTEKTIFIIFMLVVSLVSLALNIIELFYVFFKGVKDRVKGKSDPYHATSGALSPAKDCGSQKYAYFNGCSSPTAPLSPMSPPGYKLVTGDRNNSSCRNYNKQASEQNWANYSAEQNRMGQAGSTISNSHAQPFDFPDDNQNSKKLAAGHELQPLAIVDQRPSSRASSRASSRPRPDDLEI

Compound | concentration in compositions that must not be exceeded (synovial lining cells) | total dose that must not be exceeded (synovial lining cells) | interference with the effect of IL-1 on synovial cells [1] | block of connexin 43 (connexin 43)
COC(=O)C1=C(C)NC(C)=C(C(=O)OC)C1c1ccccc1[N+](=O)[O-] [nifedipine] | ≤ 2000 µg/mL | ≤ 2.0 mg | – | –
CCN(CC)CCNC(=O)c1ccc(N)cc1 [procainamide] | ≤ 2000 µg/mL | ≤ 2.0 mg | – | –
COc1ccc(CCN(C)CCCC(C#N)(c2ccc(OC)c(OC)c2)C(C)C)cc1OC (stereo not drawn) [verapamil] | ≤ 2000 µg/mL | ≤ 2.0 mg | capable of interfering with the effect of IL-1 on synovial cells | –
SRPTEKTIFII [undecapeptide, connexin 43 residue numbers 204-214, mimetic peptide] | – | – | – | able to block connexin 43
VCYDKSFPISHVR [synthetic tridecapeptide, connexin 43 residue numbers 63-75, mimetic peptide] | – | – | – | able to block connexin 43
